Reference: PubChem BioAssay AID1963963 (Molecular Pharmacology Branch, DTP, NCI, 2024)

Tested on: 958667-338-R-J2-PDC tumor spheroids viability
Test: Anticancer human tumor 958667-338-R-J2-PDC patient-derived colon adenocarcinoma cell line growth inhibition [PI3K]
Conditions: spheroids with HUVEC and MSC; for viability, T/C: stronger effect = lower value
Summary of the method: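 Three cell types, namely tumor cells, endothelial cells and mesenchymal stem cells, formed each spheroid. Combinations with four PI3K inhibitors were screened at clinically achievable concentrations decreasing by half-log, and spheroid viability was recorded.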

[1] = curve of first compound, second compound 0.00316 µM
[2] = curve of first compound, second compound 0.01 µM
[3] = curve of first compound, second compound 0.0316 µM
[4] = curve of first compound, second compound 0.1 µM
[5] = curve of first compound, second compound 0.316 µM
[6] = curve of first compound, second compound 1 µM
[7] = second compound 0.00316 µM, first compound 0.0316 µM
[8] = second compound 0.00316 µM, first compound 0.1 µM
[9] = second compound 0.00316 µM, first compound 0.316 µM
[10] = second compound 0.00316 µM, first compound 1 µM
[11] = second compound 0.00316 µM, first compound 3.16 µM
[12] = second compound 0.00316 µM, first compound 10 µM
[13] = second compound 0.01 µM, first compound 0.0316 µM
[14] = second compound 0.01 µM, first compound 0.1 µM
[15] = second compound 0.01 µM, first compound 0.316 µM
[16] = second compound 0.01 µM, first compound 1 µM
[17] = second compound 0.01 µM, first compound 3.16 µM
[18] = second compound 0.01 µM, first compound 10 µM
[19] = second compound 0.0316 µM, first compound 0.0316 µM
[20] = second compound 0.0316 µM, first compound 0.1 µM
[21] = second compound 0.0316 µM, first compound 0.316 µM
[22] = second compound 0.0316 µM, first compound 1 µM
[23] = second compound 0.0316 µM, first compound 3.16 µM
[24] = second compound 0.0316 µM, first compound 10 µM
[25] = second compound 0.1 µM, first compound 0.0316 µM
[26] = second compound 0.1 µM, first compound 0.1 µM
[27] = second compound 0.1 µM, first compound 0.316 µM
[28] = second compound 0.1 µM, first compound 1 µM
[29] = second compound 0.1 µM, first compound 3.16 µM
[30] = second compound 0.1 µM, first compound 10 µM
[31] = second compound 0.316 µM, first compound 0.0316 µM
[32] = second compound 0.316 µM, first compound 0.1 µM
[33] = second compound 0.316 µM, first compound 0.316 µM
[34] = second compound 0.316 µM, first compound 1 µM
[35] = second compound 0.316 µM, first compound 3.16 µM
[36] = second compound 0.316 µM, first compound 10 µM
[37] = second compound 1 µM, first compound 0.0316 µM
[38] = second compound 1 µM, first compound 0.1 µM
[39] = second compound 1 µM, first compound 0.316 µM
[40] = second compound 1 µM, first compound 1 µM
[41] = second compound 1 µM, first compound 3.16 µM
[42] = second compound 1 µM, first compound 10 µM
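Further: spheroids exposed to compounds for seven days before readout.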

SMILES: CC(Cn1ccc(-c2ccc(C#N)c(Cl)c2)n1)NC(=O)c1cc(C(C)O)[nH]n1 (stereo unspecified) + COc1c(OCCCN2CCOCC2)ccc2c3n(c(=NC(=O)c4cnc(N)nc4)nc12)CCN3
- IC50 [1]: > 10 µM
- IC50 [2]: > 10 µM
- IC50 [3]: > 10 µM
- IC50 [4]: 7.69 µM
- IC50 [5]: < 0.0316 µM
- IC50 [6]: < 0.0316 µM
- viability, T/C [7]: 109%
- viability, T/C [8]: 89.7%
- viability, T/C [9]: 111%
- viability, T/C [10]: 94.9%
- viability, T/C [11]: 97.7%
- viability, T/C [12]: 102%
- viability, T/C [13]: 83.1%
- viability, T/C [14]: 83.1%
- viability, T/C [15]: 85.2%
- viability, T/C [16]: 81.1%
- viability, T/C [17]: 104%
- viability, T/C [18]: 80.4%
- viability, T/C [19]: 75.3%
- viability, T/C [20]: 74.6%
- viability, T/C [21]: 62.8%
- viability, T/C [22]: 72.4%
- viability, T/C [23]: 76.7%
- viability, T/C [24]: 69.9%
- viability, T/C [25]: 49.5%
- viability, T/C [26]: 66.2%
- viability, T/C [27]: 56.2%
- viability, T/C [28]: 59.2%
- viability, T/C [29]: 58.5%
- viability, T/C [30]: 47.6%
- viability, T/C [31]: 33.6%
- viability, T/C [32]: 40.9%
- viability, T/C [33]: 37%
- viability, T/C [34]: 39.4%
- viability, T/C [35]: 37.3%
- viability, T/C [36]: 49.2%
- viability, T/C [37]: 19.5%
- viability, T/C [38]: 18.7%
- viability, T/C [39]: 20.6%
- viability, T/C [40]: 19.9%
- viability, T/C [41]: 22.5%
- viability, T/C [42]: 14.6%

SMILES: CC(C)n1nc(-c2ccc3oc(N)nc3c2)c2c(N)ncnc21
- viability, T/C (compound 0.000316 µM): 93.8% [middle of 4 runs]
- viability, T/C (compound 0.001 µM): 97.1% [middle of 4 runs]
- viability, T/C (compound 0.01 µM): 94.7% [middle of 4 runs]
- viability, T/C (compound 0.0316 µM): 72.6% [middle of 4 runs]
- viability, T/C (compound 0.1 µM): 44.5% [middle of 4 runs]
- IC50 (curve of compound): 80.6 nM [middle of 4 runs]

SMILES: Cn1ncnc1[C@H]1c2n[nH]c(=O)c3cc(F)cc(c23)N[C@@H]1c1ccc(F)cc1 + CC(Nc1ncnc2nc[nH]c12)c1cc2cccc(Cl)c2c(=O)n1-c1ccccc1
- IC50 [3]: > 0.1 µM
- IC50 [4]: > 0.1 µM
- IC50 [5]: > 0.1 µM
- IC50 [6]: > 0.1 µM
- IC50 (curve of first compound, second compound 3.16 µM): > 0.1 µM
- IC50 (curve of first compound, second compound 10 µM): > 0.1 µM
- viability, T/C (second compound 0.0316 µM, first compound 0.000316 µM): 103%
- viability, T/C (second compound 0.0316 µM, first compound 0.001 µM): 114%
- viability, T/C (second compound 0.0316 µM, first compound 0.00316 µM): 105%
- viability, T/C (second compound 0.0316 µM, first compound 0.01 µM): 110%
- viability, T/C [19]: 113%
- viability, T/C [20]: 98%
- viability, T/C (second compound 0.1 µM, first compound 0.000316 µM): 103%
- viability, T/C (second compound 0.1 µM, first compound 0.001 µM): 82.8%
- viability, T/C (second compound 0.1 µM, first compound 0.00316 µM): 117%
- viability, T/C (second compound 0.1 µM, first compound 0.01 µM): 126%
- viability, T/C [25]: 119%
- viability, T/C [26]: 83.6%
- viability, T/C (second compound 0.316 µM, first compound 0.000316 µM): 120%
- viability, T/C (second compound 0.316 µM, first compound 0.001 µM): 114%
- viability, T/C (second compound 0.316 µM, first compound 0.00316 µM): 111%
- viability, T/C (second compound 0.316 µM, first compound 0.01 µM): 116%
- viability, T/C [31]: 118%
- viability, T/C [32]: 94.7%
- viability, T/C (second compound 1 µM, first compound 0.000316 µM): 109%
- viability, T/C (second compound 1 µM, first compound 0.001 µM): 112%
- viability, T/C (second compound 1 µM, first compound 0.00316 µM): 99.9%
- viability, T/C (second compound 1 µM, first compound 0.01 µM): 100%
- viability, T/C [37]: 95.2%
- viability, T/C [38]: 96.3%
- viability, T/C (second compound 3.16 µM, first compound 0.000316 µM): 107%
- viability, T/C (second compound 3.16 µM, first compound 0.001 µM): 109%
- viability, T/C (second compound 3.16 µM, first compound 0.00316 µM): 99.2%
- viability, T/C (second compound 3.16 µM, first compound 0.01 µM): 89.9%
- viability, T/C (second compound 3.16 µM, first compound 0.0316 µM): 94.7%
- viability, T/C (second compound 3.16 µM, first compound 0.1 µM): 89.8%
- viability, T/C (second compound 10 µM, first compound 0.000316 µM): 93.7%
- viability, T/C (second compound 10 µM, first compound 0.001 µM): 98.3%
- viability, T/C (second compound 10 µM, first compound 0.00316 µM): 109%
- viability, T/C (second compound 10 µM, first compound 0.01 µM): 89.9%
- viability, T/C (second compound 10 µM, first compound 0.0316 µM): 83.2%
- viability, T/C (second compound 10 µM, first compound 0.1 µM): 88.4%

SMILES: CC(Nc1ncnc2nc[nH]c12)c1cc2cccc(Cl)c2c(=O)n1-c1ccccc1 (stereo unspecified)
- viability, T/C (compound 0.1 µM): 93.8% [middle of 8 runs]
- viability, T/C (compound 1 µM): 90.8% [middle of 8 runs]
- viability, T/C (compound 10 µM): 92.9% [middle of 8 runs]
- IC50 (compound alone, run of 06/13/2023): > 10 µM

SMILES: C=CC(=O)N1CCN(c2nc(=O)n(-c3c(C)ccnc3C(C)C)c3nc(-c4c(O)cccc4F)c(F)cc23)C(C)C1 (stereo unspecified) + COc1c(OCCCN2CCOCC2)ccc2c3n(c(=NC(=O)c4cnc(N)nc4)nc12)CCN3
- IC50 [1]: > 10 µM
- IC50 [2]: > 10 µM
- IC50 [3]: > 10 µM
- IC50 [4]: > 10 µM
- IC50 [5]: < 0.0316 µM
- IC50 [6]: < 0.0316 µM
- viability, T/C [7]: 97.1%
- viability, T/C [8]: 97.6%
- viability, T/C [9]: 88.8%
- viability, T/C [10]: 117%
- viability, T/C [11]: 103%
- viability, T/C [12]: 121%
- viability, T/C [13]: 103%
- viability, T/C [14]: 103%
- viability, T/C [15]: 87%
- viability, T/C [16]: 92.6%
- viability, T/C [17]: 107%
- viability, T/C [18]: 94%
- viability, T/C [19]: 82.1%
- viability, T/C [20]: 83%
- viability, T/C [21]: 71.8%
- viability, T/C [22]: 72.4%
- viability, T/C [23]: 78.2%
- viability, T/C [24]: 69.9%
- viability, T/C [25]: 61%
- viability, T/C [26]: 72.7%
- viability, T/C [27]: 52.9%
- viability, T/C [28]: 62.6%
- viability, T/C [29]: 72.4%
- viability, T/C [30]: 64.2%
- viability, T/C [31]: 36.3%
- viability, T/C [32]: 36%
- viability, T/C [33]: 44.4%
- viability, T/C [34]: 42%
- viability, T/C [35]: 47.3%
- viability, T/C [36]: 46.1%
- viability, T/C [37]: 22.6%
- viability, T/C [38]: 23.1%
- viability, T/C [39]: 18.8%
- viability, T/C [40]: 21.2%
- viability, T/C [41]: 25.3%
- viability, T/C [42]: 18.2%
